Assays:
[1] = test system: RAS-effector PPI; test: RAS biosensor BRET assay (partners not specified); assay type: cell-based, human
Experimental: The BRET assay was carried out as described elsewhere. A total of 650,000 HEK293T were seeded in each well of a six well plate. Approximately, 24 h later, cells were transfected with an appropriated BRET-based RAS biosensor (i.e. RAS-effector) using Lipofectamine 2000 transfection reagent (Thermo-Fisher). Cells were detached 24 h later and washed with PBS and seeded in a white 96 well plate (clear bottom, PerkinElmer, cat#6005181) in OptiMEM no phenol red medium (Life Technologies) complemented with 4% FBS. Cells were left for 4 h at 37 °C before adding compounds. […] The final concentrations in the cells were 0, 5, 10 and 20 μM (therefore the intermediate 10X concentrations were 0, 50, 100 and 200 μM. Furthermore, 10 μl of 10X compounds were added in each well of the 96 well plate to 0, 5, 10 and 20 μM final concentrations (with final 0.2% DMSO each). Quadruplicates were performed for each point. Cells were left for an additional 20 h at 37 °C before the BRET2 signal reading directly after addition of Coelenterazine 400a substrate (10 μM final) to cells (Cayman Chemicals, cat#16157). BRET2 reading was carried out on an Envision instrument (2103 Multilabel Reader, PerkinElmer) with the BRET2 Dual Emission optical module (515 nm ± 30 and 410 nm ± 80; PerkinElmer).

[2] = molecular target: PI3KC2; test: Kinase panel (KinaseProfiler), first PI3KC2 line; assay type: biochemical, human; conditions: PI3KC2 (first of two lines), 10μM
Experimental: (§1) Experiments were performed by Eurofins Pharma Discovery Services. The KinaseProfiler™ assay protocol guide can be downloaded from their website: www.eurofins.com/discoveryservices. The guide contains information on the buffer conditions, substrate and reference inhibitor blank used for each kinase.
(§2) Supplementary Table 3. Assessment of potential interaction of Abd-7 with a human kinase
(§3) Kinase % kinase activity in
(§4) A panel of 14 Kinases (relevant to the RAS pathway) has been screened against Abd-7
(§5) (10μM) and the kinase activity was measured. […] of activity was observe for all
(§6) function of the selected and RAS relevant kinase proteins.

[3] = molecular target: T1, MAPK1 (Homo sapiens, UniProt P27361); test: Kinase panel (KinaseProfiler); assay type: biochemical; conditions: MAPK1, 10μM
T1 construct: purchased Eurofins Pharma Discovery Services (KinaseProfiler)
Experimental: as §1, §2, §3, §4, §5, §6

[4] = molecular target: T2, PKBα (Homo sapiens, UniProt P31749); test: Kinase panel (KinaseProfiler); assay type: biochemical; conditions: 10μM
T2 construct: purchased Eurofins Pharma Discovery Services (KinaseProfiler)
Experimental: as §1, §2, §3, §4, §5, §6

[5] = molecular target: T3, PKBβ (Homo sapiens, UniProt P31751); test: Kinase panel (KinaseProfiler); assay type: biochemical; conditions: 10μM
T3 construct: purchased Eurofins Pharma Discovery Services (KinaseProfiler)
Experimental: as §1, §2, §3, §4, §5, §6

[6] = molecular target: T4, MAPK2 (Homo sapiens, UniProt P28482); test: Kinase panel (KinaseProfiler); assay type: biochemical; conditions: MAPK2, 10μM
T4 construct: purchased Eurofins Pharma Discovery Services (KinaseProfiler)
Experimental: as §1, §2, §3, §4, §5, §6

[7] = molecular target: T5, MEK1 (Homo sapiens, UniProt Q02750); test: Kinase panel (KinaseProfiler); assay type: biochemical; conditions: MEK1, 10μM
T5 construct: purchased Eurofins Pharma Discovery Services (KinaseProfiler)
Experimental: as §1, §2, §3, §4, §5, §6

[8] = molecular target: T6, MEK2 (Homo sapiens, UniProt P36507); test: Kinase panel (KinaseProfiler); assay type: biochemical; conditions: MEK2, 10μM
T6 construct: purchased Eurofins Pharma Discovery Services (KinaseProfiler)
Experimental: as §1, §2, §3, §4, §5, §6

[9] = molecular target: T7, mTOR (Homo sapiens, UniProt P42345); test: Kinase panel (KinaseProfiler); assay type: biochemical; conditions: 10μM
T7 construct: purchased Eurofins Pharma Discovery Services (KinaseProfiler)
Experimental: as §1, §2, §3, §4, §5, §6

[10] = molecular target: T8, CRAF (Homo sapiens, UniProt P04049); test: Kinase panel (KinaseProfiler); assay type: biochemical; conditions: 10μM
T8 construct: purchased Eurofins Pharma Discovery Services (KinaseProfiler)
Experimental: as §1, §2, §3, §4, §5, §6

[11] = molecular target: T9, BRAF (Homo sapiens, UniProt P15056); test: Kinase panel (KinaseProfiler); assay type: biochemical; conditions: 10μM
T9 construct: purchased Eurofins Pharma Discovery Services (KinaseProfiler)
Experimental: as §1, §2, §3, §4, §5, §6

[12] = test system: AKT phosphorylation (Ser473) in DLD-1 cells (KRAS^G13D); test: Biomarker phosphorylation assay, pAKT, DLD-1; assay type: cell-based, human; conditions: EGF 10 min
Experimental: Fig. 5 Abd-7 results on RAS-dependent signalling pathways and cell viability. a, b DLD-1 (a) or H358 (b) cells were serum-starved for 24 h, incubated in mono-layer with Abd-7 in a range from 2, 5, 10 and 20 μM for 3 h and stimulated with EGF 10 min. Proteins were extracted and separated by SDS-PAGE and transferred to membranes for Western analysis with anti-pAKT, anti-pERK, anti-pan AKT and anti-pan ERK. Anti-cyclophilin B antibody was the loading control. Signal was developed using standard ECL. c–e Effects of compounds Abd-2, Abd-4, Abd-5, Abd-6, and Abd-7 on the viability of human cancer cells lines was assessed for a 2-D culture of DLD-1 (mutant KRAS^G13D) cells and HT1080 cells (mutant NRAS^Q61K). The cells were treated with a dose range from 0 μM to 20 μ and incubated for 72 h when cell viability was assessed using CellTitreGlo. […] Each experiment was repeated at least three times (a, b) and four times (c, d). Where error bars are presented, they correspond to mean values ± SD of biological repeats
A total of 450,000 DLD1 or 640,000 H358 cells were seeded per well of a six well plate. Approximately, 20 h later, the medium was removed, the cells washed twice with PBS and DMEM without FBS was added and left for 24 h. The medium was removed and 2 ml of DMEM no FBS was added with the appropriate concentration of compound (DMSO, 2, 5, 10 or 20 μM) for 3 h. Cells were stimulated with EGF (50 ng/ml) for 10 min, washed once with PBS and directly lysed in SDS-Tris buffer (1% SDS, 10 mM Tris-HCl pH 7.4) supplemented with protease inhibitors (Sigma) and phosphatase inhibitors (Thermo-Fisher). Cell lysates were sonicated with a Branson Sonifier and the protein concentrations determined by using the Pierce BCA protein assay kit (Thermo-Fisher). Furthermore, 10 μg of protein were resolved on 10 or 12.5% SDS-PAGE and subsequently transferred onto a PVDF membrane (GE). The membrane was blocked (with 10% non-fat milk (Sigma) or 10% BSA (Sigma) in TBS-0.1% Tween20) and incubated overnight with primary antibody at 4 °C. […]

T9 sequence (P15056 whole entry): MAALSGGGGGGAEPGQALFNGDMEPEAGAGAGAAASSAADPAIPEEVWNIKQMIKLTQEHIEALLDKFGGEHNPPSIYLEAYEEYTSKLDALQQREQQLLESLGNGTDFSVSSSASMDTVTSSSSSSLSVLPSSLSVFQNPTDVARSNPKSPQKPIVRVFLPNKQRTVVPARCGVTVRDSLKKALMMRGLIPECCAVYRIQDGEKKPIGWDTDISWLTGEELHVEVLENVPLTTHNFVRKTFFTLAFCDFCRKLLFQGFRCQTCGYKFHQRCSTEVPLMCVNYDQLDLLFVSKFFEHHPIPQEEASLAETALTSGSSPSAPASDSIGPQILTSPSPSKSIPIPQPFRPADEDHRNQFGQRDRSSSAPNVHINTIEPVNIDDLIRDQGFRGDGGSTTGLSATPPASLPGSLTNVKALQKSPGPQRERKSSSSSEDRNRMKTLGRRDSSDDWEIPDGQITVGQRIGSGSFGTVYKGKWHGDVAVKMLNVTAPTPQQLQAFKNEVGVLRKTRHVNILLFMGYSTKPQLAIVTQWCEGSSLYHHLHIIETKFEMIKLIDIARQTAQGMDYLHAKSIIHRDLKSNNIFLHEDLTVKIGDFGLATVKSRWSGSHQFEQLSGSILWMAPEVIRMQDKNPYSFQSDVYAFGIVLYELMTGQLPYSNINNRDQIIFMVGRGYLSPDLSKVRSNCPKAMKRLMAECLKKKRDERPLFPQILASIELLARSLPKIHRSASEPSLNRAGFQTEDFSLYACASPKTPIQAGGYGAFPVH
T1 sequence (P27361 whole entry): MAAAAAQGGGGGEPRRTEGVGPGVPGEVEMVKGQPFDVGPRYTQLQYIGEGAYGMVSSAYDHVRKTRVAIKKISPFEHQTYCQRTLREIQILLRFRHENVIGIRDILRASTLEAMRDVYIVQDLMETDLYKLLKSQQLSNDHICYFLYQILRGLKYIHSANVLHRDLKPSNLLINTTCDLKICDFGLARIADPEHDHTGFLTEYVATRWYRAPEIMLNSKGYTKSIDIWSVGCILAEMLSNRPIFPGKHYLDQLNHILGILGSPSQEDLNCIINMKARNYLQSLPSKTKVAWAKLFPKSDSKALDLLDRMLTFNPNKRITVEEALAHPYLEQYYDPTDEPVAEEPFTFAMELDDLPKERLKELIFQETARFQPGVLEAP
T3 sequence (P31751 whole entry): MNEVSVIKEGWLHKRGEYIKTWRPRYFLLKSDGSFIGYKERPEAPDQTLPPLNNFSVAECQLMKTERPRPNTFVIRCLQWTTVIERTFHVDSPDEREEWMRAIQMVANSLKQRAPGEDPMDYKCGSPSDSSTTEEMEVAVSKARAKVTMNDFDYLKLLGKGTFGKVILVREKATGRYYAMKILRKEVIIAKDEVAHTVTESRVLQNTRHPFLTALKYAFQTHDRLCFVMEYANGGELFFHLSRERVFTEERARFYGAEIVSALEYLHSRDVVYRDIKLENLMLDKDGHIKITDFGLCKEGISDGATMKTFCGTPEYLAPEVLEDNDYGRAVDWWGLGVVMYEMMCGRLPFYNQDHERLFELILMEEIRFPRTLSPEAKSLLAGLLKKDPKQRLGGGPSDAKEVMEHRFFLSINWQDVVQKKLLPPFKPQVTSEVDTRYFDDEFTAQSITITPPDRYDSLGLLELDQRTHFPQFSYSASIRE
T6 sequence (P36507 whole entry): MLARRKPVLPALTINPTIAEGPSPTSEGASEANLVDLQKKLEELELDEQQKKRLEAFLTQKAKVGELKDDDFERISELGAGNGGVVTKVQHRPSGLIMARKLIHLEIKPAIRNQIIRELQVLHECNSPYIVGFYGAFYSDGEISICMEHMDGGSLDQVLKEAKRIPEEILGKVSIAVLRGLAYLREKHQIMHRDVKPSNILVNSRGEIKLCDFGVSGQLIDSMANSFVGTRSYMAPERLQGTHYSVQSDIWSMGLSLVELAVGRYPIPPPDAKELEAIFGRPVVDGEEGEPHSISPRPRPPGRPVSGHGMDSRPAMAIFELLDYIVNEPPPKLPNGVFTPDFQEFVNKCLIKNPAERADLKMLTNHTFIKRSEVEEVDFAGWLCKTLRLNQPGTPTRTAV
T2 sequence (P31749 whole entry): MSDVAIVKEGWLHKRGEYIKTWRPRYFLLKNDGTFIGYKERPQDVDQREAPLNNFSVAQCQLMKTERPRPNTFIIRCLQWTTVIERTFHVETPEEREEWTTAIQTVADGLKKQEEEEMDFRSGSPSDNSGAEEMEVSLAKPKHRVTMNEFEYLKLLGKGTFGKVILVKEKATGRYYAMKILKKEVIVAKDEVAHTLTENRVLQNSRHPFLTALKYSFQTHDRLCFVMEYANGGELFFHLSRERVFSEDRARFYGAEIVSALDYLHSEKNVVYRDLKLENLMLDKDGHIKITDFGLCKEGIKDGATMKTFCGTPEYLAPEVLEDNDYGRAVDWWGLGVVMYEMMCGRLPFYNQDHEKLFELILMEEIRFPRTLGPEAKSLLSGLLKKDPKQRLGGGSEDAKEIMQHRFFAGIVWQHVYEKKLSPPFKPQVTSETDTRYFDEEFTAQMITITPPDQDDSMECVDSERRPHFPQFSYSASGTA
T4 sequence (P28482 whole entry): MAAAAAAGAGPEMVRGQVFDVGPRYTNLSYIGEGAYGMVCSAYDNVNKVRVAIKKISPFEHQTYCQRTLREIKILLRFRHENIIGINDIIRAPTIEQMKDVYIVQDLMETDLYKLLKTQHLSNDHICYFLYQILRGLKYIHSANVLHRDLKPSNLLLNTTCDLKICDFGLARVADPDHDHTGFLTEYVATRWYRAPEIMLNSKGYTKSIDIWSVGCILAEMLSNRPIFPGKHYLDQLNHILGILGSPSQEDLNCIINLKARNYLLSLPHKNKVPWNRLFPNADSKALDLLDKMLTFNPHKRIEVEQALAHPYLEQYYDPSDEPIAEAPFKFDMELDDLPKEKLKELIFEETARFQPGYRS
T8 sequence (P04049 whole entry): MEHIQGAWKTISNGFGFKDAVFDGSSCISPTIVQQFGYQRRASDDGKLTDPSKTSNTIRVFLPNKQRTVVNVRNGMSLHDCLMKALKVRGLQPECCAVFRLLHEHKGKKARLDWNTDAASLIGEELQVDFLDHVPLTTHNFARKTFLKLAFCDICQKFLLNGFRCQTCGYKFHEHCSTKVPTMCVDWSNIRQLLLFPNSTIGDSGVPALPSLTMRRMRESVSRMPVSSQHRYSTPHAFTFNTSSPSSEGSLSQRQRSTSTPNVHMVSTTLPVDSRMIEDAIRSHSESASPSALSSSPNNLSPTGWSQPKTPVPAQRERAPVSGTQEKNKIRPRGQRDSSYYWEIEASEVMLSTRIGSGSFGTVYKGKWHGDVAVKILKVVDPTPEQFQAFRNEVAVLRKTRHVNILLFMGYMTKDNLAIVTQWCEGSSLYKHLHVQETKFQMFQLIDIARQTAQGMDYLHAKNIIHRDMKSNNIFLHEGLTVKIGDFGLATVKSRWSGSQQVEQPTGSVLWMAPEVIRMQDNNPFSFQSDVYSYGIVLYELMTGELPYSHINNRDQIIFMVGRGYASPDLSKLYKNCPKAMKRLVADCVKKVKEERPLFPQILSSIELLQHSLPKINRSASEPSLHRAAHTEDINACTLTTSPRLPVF
T5 sequence (Q02750 whole entry): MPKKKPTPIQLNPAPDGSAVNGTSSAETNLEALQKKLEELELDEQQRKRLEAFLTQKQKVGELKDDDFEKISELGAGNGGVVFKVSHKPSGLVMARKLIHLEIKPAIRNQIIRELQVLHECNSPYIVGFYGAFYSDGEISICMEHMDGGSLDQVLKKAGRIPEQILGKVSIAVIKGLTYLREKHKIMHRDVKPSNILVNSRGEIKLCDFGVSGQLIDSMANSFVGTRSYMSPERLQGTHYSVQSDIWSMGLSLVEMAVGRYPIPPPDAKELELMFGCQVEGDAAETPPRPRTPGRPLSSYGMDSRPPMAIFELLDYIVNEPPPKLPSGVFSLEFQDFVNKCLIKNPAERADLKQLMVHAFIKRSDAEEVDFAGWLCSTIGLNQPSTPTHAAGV

| % kinase activity in the presence of Abd-7 [2] | % kinase activity in the presence of Abd-7 [3] | % kinase activity in the presence of Abd-7 [4] | % kinase activity in the presence of Abd-7 [5] | % kinase activity in the presence of Abd-7 [6] | % kinase activity in the presence of Abd-7 [7] | % kinase activity in the presence of Abd-7 [8] | % kinase activity in the presence of Abd-7 [9] | % kinase activity in the presence of Abd-7 [10] | % kinase activity in the presence of Abd-7 [11] | Compound | activity in the RAS biosensor BRET assay [1] | inhibition of AKT phosphorylation ([12]; DLD-1, 20 μM, 3 h) | concentration at which inhibition of AKT phosphorylation initiates ([12]; DLD-1, starved 24 h, 3 h compound, Western) | inhibition at 10 µM ([12]; Homo sapiens, DLD-1, 10 μM, 3 h) |
| --- | --- | --- | --- | --- | --- | --- | --- | --- | --- | --- | --- | --- | --- | --- |
| – | – | – | – | – | – | – | – | – | – | O=C(NCC1COc2ccccc2O1)c1ccco1 (centres unmarked) [Abd-2] | do not show activity | – | – | – |
| 102% | 126% | 91% | 93% | 111% | 105% | 101% | 89% | 101% | 104% | COc1nc(-c2cccc3c2OCCO3)ccc1Nc1ccc(CN(C)C)cc1 [Abd-7] | – | complete inhibition | 2 µM | > 50% |

— article PMC6085350, “Small molecule inhibitors of RAS-effector protein interactions derived using an intracellular antibody fragment” (Nature Communications, 2018)
